Measurements: patent publication US6713250B1, “Identification of human allergens and T-lymphocyte antigens in vitro” (The Research Foundation of State University of New York, priority 1997, dated 2004)
Where “and” joins values, the source holds several entries; their conditions need not be identical. Equal entries are not always repeated. Marks after values point to notes of the source that are not given here.

Columns and labels:
[1] = system: human naive T-cells (PBMC); assay: Primary in vitro sensitization culture of PBMC with or without mitomycin C treated T2 cells, 3H-thymidine uptake; assay type: cell-based; conditions: for response of PBMC, FIG. 4: PBMC incubated 6 days with mitomycin C treated T2 cells
Experimental: Preparation of peripheral blood mononuclear cells (PBMC). The research protocol was approved by the Committee on Research Involving Human Subjects of SUNY @ Stony Brook. After informed consent, heparinized blood was obtained by venipuncture. PBMC (peripheral blood mononuclear cells, which include lymphocytes and macrophages/monocytes) were prepared from heparinized peripheral blood by density centrifugation over Ficoll/Hypaque (Pharmacia, Piscataway, N.J.). PBMC were then washed 3 times in serum free wash medium consisting of SMEM (Gibco, Grand Island, N.Y.), and mixed (1:1) with AIM V medium (Gibco). At no time did the PBMC contact animal serum. PBMC were counted, and resuspended at 2×10^6 cells/ml in AIM V medium (Gibco).
Preparation and mitomycin C treatment of T2 cells. T2 cells were cultured in AIM V media (Gibco). Prior to treatment, they were washed, counted, and resuspended in AIM V media at 2×10^6 cells/ml. Mitomycin C (Sigma, St Louis, Mo.) was then added at 30 μg/ml for a 2 hour incubation at 37° C. The T2 cells were then washed 4 times in serum free wash media, counted with trypan blue dye exclusion, and resuspended at 1×10^6 cells/ml.
(§1) In vitro sensitization cultures. Cell cultures were performed in 96 well U-bottom trays (Linbro), with a total volume of 0.2 ml/well of AIM V medium (Gibco). PBMC (2×10^6/ml) were first admixed with equal volumes of T2 cells (1×10^6/ml), and 0.1 ml of the cell mixture was added to each well. Test compounds were then added (0.1 ml/well) at twice the desired final concentration. Each well contained 1×10^5 PBMC, 5×10^4 T2 cells, and the test compound. Control wells contained 0.1 ml of media rather than test compound. The final ratio of PBMC to T2 cells was 2:1. There were 6 replicate wells per group. The 96-well trays were then cultured for 6 days at 37° C. in a 7.5% Co2 incubator. After 6 days, 1 μCi of ^3H-thymidine was added to each well. The wells were harvested 18 hours later, and ^3H-thymidine uptake was determined with a scintillation counter (Pharmacia LKB Nuclear, Gaithersburg, Md.).

[2] = system: human naive T-cells (PBMC); assay: as above; assay type: cell-based
[3] = system: T-cells (E+) and non-T cells (E-); assay: In vitro sensitization culture of purified T-cells / non-T cells mixtures with mitomycin C treated T2 cells, 3H-thymidine uptake; assay type: cell-based, human; conditions: for MEAN/SEM (3H-thymidine uptake) / S.I.: T2 cells YES, paraphenylenediamine 10 μg/ml
Experimental: Purification of T-lymphocytes. Sheep erythrocyte receptor positive (E+) T-cells and negative (E−) non-T-cells were isolated by rosetting followed by centrifugation over a Ficoll-Hypaque gradient and lysis of sheep erythrocytes by ammonium chloride as described (38). The (E+) population was greater than 95% CD3+ as determined by cytofluorgraph analysis (below).
as §1
Lymphocyte proliferation assays are generally the result of T-lymphocyte proliferation. It was confirmed that this was also true of this novel in vitro sensitization system. T-cells (70%) were mixed with irradiated (6,000R) non-T cells (30%) for a test of in vitro sensitization to paraphenylenediamine in the presence of mitomycin C treated T2 cells. In a reciprocal group, non-T cells (70%) were mixed with irradiated T-cells (30%). These cell mixtures were added to the culture system, admixed with mitomycin C treated T2 cells, and paraphenylenediamine. […] The T2 cells are not functioning as antigen presenting cells (which is to be expected since the T2 cells lack antigen presenting Major Histocompatibility Complex antigens HLA-DR and HLA-A,B,C), but rather function as accessory cells.

[4] = PBMC + T2 CELLS (mitomycin C treated), paraphenylenediamine 10 μg/ml
[5] = PBMC at 1 × 10^5/well, T2 cells at 5 × 10^4/well, 3 μg/ml
[6] = PBMC from 4 donors, 6 days with mitomycin C treated T2 cells, each compound 3.3 μM to 60 μM
[7] = PBMC 1 × 10^5/well, no T2 cells, 3 μg/ml
[8] = PBMC at 1 × 10^5/well, T2 cells at 1 × 10^5/well, 3 μg/ml
[9] = PBMC, NO T2 CELLS, paraphenylenediamine 10 μg/ml
[10] = T-cells 30% (6,000R), non-T cells 70%
[11] = T-cells 70%, non-T cells 30% (6,000R)

Nc1ccc(O)cc1 [p-aminophenol]
response of PBMC, FIG. 4 [1]: positive response

Oc1ccccc1O [catechol]
response of PBMC, FIG. 4 [1]: positive response

Nc1ccc(N)cc1 [paraphenylenediamine]
MEAN (3H-thymidine uptake of 6 replicate wells) [1, 4]: 11973
S.I. (Stimulation index: response to antigen/response to media) [1, 4]: 2.09^e
response of naive donor PBMC to antigen ([1]; PBMC admixed with T2 cells at a ratio of 2:1, paraphenylenediamine 3 μg/ml, HIV gp160 P18 peptide 10 μg/ml): statistically significant response
MEAN dpm (3H-thymidine uptake of 6 replicate wells) [1, 5]: 6935 dpm
S.I. (Stimulation index: response to antigen/response to media) [1, 5]: 1.97^c
donor PBMC that responded, FIG. 2 [1, 6]: 3/4 and 3
response of PBMC (3H-thymidine uptake), FIG. 1 ([1]; PBMC from 4 donors, presence or absence of mitomycin C treated T2 cells, 3 μg/ml, 6 days): Only in the presence of T2 cells was there a response
response of PBMC, FIG. 4 [1]: positive response
MEAN dpm (3H-thymidine uptake of 6 replicate wells) [2, 7]: 2869 dpm
S.I. (Stimulation index: response to antigen/response to media) [2, 7]: 0.96
MEAN dpm (3H-thymidine uptake of 6 replicate wells) [2, 8]: 7856 dpm
S.I. (Stimulation index: response to antigen/response to media) [2, 8]: 1.12
donor PBMC that responded, FIG. 3 ([2]; PBMC from 6 donors, 6 days with mitomycin C treated T2 cells): 3/6
MEAN (3H-thymidine uptake of 6 replicate wells) [2, 9]: 3054
S.I. (Stimulation index: response to antigen/response to media) [2, 9]: 1.03^
response of naive donor PBMC to antigen ([2]; absence of T2 cells, paraphenylenediamine 3 μg/ml, HIV gp160 P18 peptide 10 μg/ml): no response
MEAN/SEM (3H-thymidine uptake) [3, 10]: 3096/446
S.I. [3, 10]: 0.57^
MEAN/SEM (3H-thymidine uptake) [3, 11]: 50220/2643
S.I. [3, 11]: 1.94^e
MEAN/SEM (3H-thymidine uptake) ([3]; T-cells YES, non-T cells NO): 2263/317
S.I. ([3]; T-cells YES, non-T cells NO): 0.67^
response to paraphenylenediamine ([3]; T-cells admixed with T2 cells in the absence of non-T cells): no response
response to paraphenylenediamine ([3]; group where the T-cells had been irradiated (6,000R), mitomycin C treated T2 cells): no response
response to paraphenylenediamine ([3]; groups with non-irradiated T-cells, mitomycin C treated T2 cells): only detected in the groups with non-irradiated T-cells

CCCCCCCCCCCCOS(=O)(=O)[O-].[Na+] [SDS, sodium dodecyl sulfate]
response of PBMC, FIG. 4 [1]: negative response
induction of a response of naive human T-lymphocytes in the culture system ([1]; culture with accessory T2 cells): did not induce a response
donor PBMC that responded, FIG. 2 [2, 6]: none
